By chromatographic logD is commonly meant a lipophilicity value derived from retention on a column. Low readings indicate a more hydrophilic compound, high ones a more lipophilic compound.

We go through 15 molecules from patent US20240116985A1, “STAPLED PEPTIDES AND METHODS THEREOF” (priority 2020, published 2024).

The nature of this data set: CHI Log D procedure. It counts as physicochemical. Conditions: for chromatographic logD: pH 7.4, CHI Log D; for CHI Log D: pH 7.4.

`CC(=O)N[C@@H](Cc1ccccc1)C(=O)N[C@@H](CC(=O)O)C(=O)N[C@@H](C)C(=O)N[C@]1(C)CCCCCCC=CCOC(=O)N2CC[C@@](C(=O)N[C@@H](Cc3ccccc3)C(=O)N[C@@H](Cc3c[nH]c4ccccc34)C(=O)N[C@@H](CCC(N)=O)C(N)=O)(C2)NC(=O)[C@H](C(C)C)NC(=O)[C@H](Cc2ccccc2)NC(=O)[C@H](C)NC(=O)[C@H](C)NC(=O)[C@H](CCCC(=O)O)NC(=O)[C@H](CC(=O)O)NC1=O` (single isomer, unassigned) [I-5, Ac-Phe-Asp-Ala-R8-Asp-Aad-Ala-Ala-Phe-Val-PyrS-Phe-Trp-Gln-NH2] displayed a chromatographic logD of 1.33.
On to `CC(=O)N[C@@H](Cc1ccccc1)C(=O)N[C@@H](CC(=O)O)C(=O)N[C@@H](C)C(=O)N[C@]1(C)CCCCCCC=CCOC(=O)N2CC[C@@](C(=O)N[C@@H](Cc3ccccc3)C(=O)N[C@@H](Cc3c[nH]c4ccccc34)C(=O)N[C@@H](CCC(N)=O)C(N)=O)(C2)NC(=O)[C@H](C(C)C)NC(=O)[C@H](Cc2ccccc2)NC(=O)[C@H](C)NC(=O)[C@H](C)NC(=O)[C@H](Cc2ccc(C(=O)O)cc2)NC(=O)[C@H](CC(=O)O)NC1=O` (single isomer, unassigned) [I-7, Ac-Phe-Asp-Ala-R8-Asp-4COOHF-Ala-Ala-Phe-Val-PyrS-Phe-Trp-Gln-NH2], for which the chromatographic logD came out at 1.32.
As for `CC(=O)N[C@@H](Cc1ccccc1)C(=O)N[C@@H](CC(=O)O)C(=O)N[C@@H](C)C(=O)N[C@]1(C)CCCCCCC=CCOC(=O)N2CC[C@@](C(=O)N[C@@H](Cc3ccccc3)C(=O)N[C@@H](Cc3c[nH]c4ccccc34)C(=O)N[C@@H](CCC(N)=O)C(N)=O)(C2)NC(=O)[C@H](C(C)C)NC(=O)[C@H](Cc2ccccc2)NC(=O)[C@H](C)NC(=O)[C@H](C)NC(=O)[C@H](Cc2ccc(C(=O)O)cc2)NC(=O)[C@H](CC(=O)O)NC1=O` (single isomer, unassigned) [I-8, Ac-Phe-Asp-Ala-R8-Asp-4COOHF-Ala-Ala-Phe-Val-PyrS-Phe-Trp-Gln-NH2], the “CHI Log D” value came out at 1.349.
`CC(=O)N[C@@H](Cc1ccccc1)C(=O)N[C@@H](CC(=O)O)C(=O)N[C@@H](C)C(=O)N[C@]1(C)CCCCCCC=CCOC(=O)N2CC[C@@](C(=O)N[C@@H](Cc3ccccc3)C(=O)N[C@@H](Cc3c[nH]c4ccccc34)C(=O)N[C@@H](CCC(N)=O)C(N)=O)(C2)NC(=O)[C@H](C(C)C)NC(=O)[C@H](Cc2ccccc2)NC(=O)[C@H](C)NC(=O)[C@H](C)NC(=O)[C@H](Cc2cccnc2)NC(=O)[C@H](CC(=O)O)NC1=O` (single isomer, unassigned) [I-9, Ac-Phe-Asp-Ala-R8-Asp-3PyrA-Ala-Ala-Phe-Val-PyrS-Phe-Trp-Gln-NH2] displayed a chromatographic logD of 1.65.
As for `CC(=O)N[C@@H](Cc1ccccc1)C(=O)N[C@@H](CC(=O)O)C(=O)N[C@@H](C)C(=O)N[C@]1(C)CCCCCCC=CCOC(=O)N2CC[C@@](C(=O)N[C@@H](Cc3ccccc3)C(=O)N[C@@H](Cc3c[nH]c4ccccc34)C(=O)N[C@@H](CCC(N)=O)C(N)=O)(C2)NC(=O)[C@H](C(C)C)NC(=O)[C@H](Cc2ccccc2)NC(=O)[C@H](C)NC(=O)[C@H](C)NC(=O)[C@H](Cc2cccnc2)NC(=O)[C@H](CC(=O)O)NC1=O` (single isomer, unassigned) [I-10, Ac-Phe-Asp-Ala-R8-Asp-3PyrA-Ala-Ala-Phe-Val-PyrS-Phe-Trp-Gln-NH2], the “CHI Log D” value is recorded as 1.661.
Consider `CC(=O)N[C@@H](Cc1ccccc1)C(=O)N[C@@H](CC(=O)O)C(=O)N[C@@H](C)C(=O)N[C@]1(C)CCCCCCC=CCOC(=O)N2CC[C@@](C(=O)N[C@@H](Cc3ccccc3)C(=O)N[C@@H](Cc3c[nH]c4ccccc34)C(=O)N[C@@H](CCC(N)=O)C(N)=O)(C2)NC(=O)[C@H](C(C)C)NC(=O)[C@H](Cc2ccccc2)NC(=O)[C@H](C)NC(=O)[C@H](C)NC(=O)[C@H](Cc2ccc(-c3ccccc3)cc2)NC(=O)[C@H](CC(=O)O)NC1=O` (single isomer, unassigned) [I-11, Ac-Phe-Asp-Ala-R8-Asp-Bip-Ala-Ala-Phe-Val-PyrS-Phe-Trp-Gln-NH2], for which the chromatographic logD is 2.27.
For the molecule `CC(=O)N[C@@H](Cc1ccccc1)C(=O)N[C@@H](CC(=O)O)C(=O)N[C@@H](C)C(=O)N[C@]1(C)CCCCCCC=CCOC(=O)N2CC[C@@](C(=O)N[C@@H](Cc3ccccc3)C(=O)N[C@@H](Cc3c[nH]c4ccccc34)C(=O)N[C@@H](CCC(N)=O)C(N)=O)(C2)NC(=O)[C@H](C(C)C)NC(=O)[C@H](Cc2ccccc2)NC(=O)[C@H](C)NC(=O)[C@H](C)NC(=O)[C@H](Cc2ccc(-c3ccccc3)cc2)NC(=O)[C@H](CC(=O)O)NC1=O` (single isomer, unassigned) [I-12, Ac-Phe-Asp-Ala-R8-Asp-Bip-Ala-Ala-Phe-Val-PyrS-Phe-Trp-Gln-NH2], the “CHI Log D” value was 2.247.
With `CCCC[C@@H]1NC(=O)[C@H](CC(=O)O)NC(=O)[C@](C)(NC(=O)[C@H](C)NC(=O)[C@H](CC(=O)O)NC(=O)[C@H](Cc2ccccc2)NC(C)=O)CCCCCCC=CCOC(=O)N2CC[C@@](C(=O)N[C@@H](Cc3ccccc3)C(=O)N[C@@H](Cc3c[nH]c4ccccc34)C(=O)N[C@@H](CCC(N)=O)C(N)=O)(C2)NC(=O)[C@H](C(C)C)NC(=O)[C@H](Cc2ccccc2)NC(=O)[C@H](C)NC(=O)[C@H](C)NC1=O` (single isomer, unassigned) [I-13, Ac-Phe-Asp-Ala-R8-Asp-nLeu-Ala-Ala-Phe-Val-PyrS-Phe-Trp-Gln-NH2], the chromatographic logD is 2.01.
As to `CC(=O)N[C@@H](Cc1ccccc1)C(=O)N[C@@H](CC(=O)O)C(=O)N[C@@H](C)C(=O)N[C@]1(C)CCCCCCC=CCOC(=O)N2CC[C@@](C(=O)N[C@@H](Cc3ccccc3)C(=O)N[C@@H](Cc3c[nH]c4ccccc34)C(=O)N[C@@H](CCC(N)=O)C(N)=O)(C2)NC(=O)[C@H](C(C)C)NC(=O)[C@H](Cc2ccccc2)NC(=O)[C@H](C)NC(=O)[C@H](C)NC(=O)[C@H](CC2CCCCC2)NC(=O)[C@H](CC(=O)O)NC1=O` (single isomer, unassigned) [I-15, Ac-Phe-Asp-Ala-R8-Asp-Cha-Ala-Ala-Phe-Val-PyrS-Phe-Trp-Gln-NH2], the chromatographic logD came out at 2.21.
Turning to `CC(=O)N[C@@H](Cc1ccccc1)C(=O)N[C@@H](CC(=O)O)C(=O)N[C@@H](C)C(=O)N[C@]1(C)CCCCCCC=CCOC(=O)N2CC[C@@](C(=O)N[C@@H](Cc3ccccc3)C(=O)N[C@@H](Cc3c[nH]c4ccccc34)C(=O)N[C@@H](CCC(N)=O)C(N)=O)(C2)NC(=O)[C@H](C(C)C)NC(=O)[C@H](Cc2ccccc2)NC(=O)[C@H](C)NC(=O)[C@H](C)NC(=O)[C@H](CC2CCCCC2)NC(=O)[C@H](CC(=O)O)NC1=O` (single isomer, unassigned) [I-16, Ac-Phe-Asp-Ala-R8-Asp-Cha-Ala-Ala-Phe-Val-PyrS-Phe-Trp-Gln-NH2], the “CHI Log D” value is given as 2.21.
`CC(=O)N[C@@H](Cc1ccccc1)C(=O)N[C@@H](CC(=O)O)C(=O)N[C@@H](C)C(=O)N[C@]1(C)CCCCCCC=CCOC(=O)N2CC[C@@](C(=O)N[C@@H](Cc3ccccc3)C(=O)N[C@@H](Cc3c[nH]c4ccccc34)C(=O)N[C@@H](CCC(N)=O)C(N)=O)(C2)NC(=O)[C@H](C(C)C)NC(=O)[C@H](Cc2ccccc2)NC(=O)[C@H](C)NC(=O)[C@H](C)NC(=O)[C@H](CCC(C)C)NC(=O)[C@H](CC(=O)O)NC1=O` (single isomer, unassigned) [I-17, Ac-Phe-Asp-Ala-R8-Asp-hLeu-Ala-Ala-Phe-Val-PyrS-Phe-Trp-Gln-NH2] came in with a chromatographic logD of 2.1.
For `CC(=O)N[C@@H](Cc1ccccc1)C(=O)N[C@@H](CC(=O)O)C(=O)N[C@@H](C)C(=O)N[C@]1(C)CCCCCCC=CCOC(=O)N2CC[C@@](C(=O)N[C@@H](Cc3ccccc3)C(=O)N[C@@H](Cc3c[nH]c4ccccc34)C(=O)N[C@@H](CCC(N)=O)C(N)=O)(C2)NC(=O)[C@H](C(C)C)NC(=O)[C@H](Cc2ccccc2)NC(=O)[C@H](C)NC(=O)[C@H](C)NC(=O)[C@H](CCC(C)C)NC(=O)[C@H](CC(=O)O)NC1=O` (single isomer, unassigned) [I-18, Ac-Phe-Asp-Ala-R8-Asp-hLeu-Ala-Ala-Phe-Val-PyrS-Phe-Trp-Gln-NH2], the “CHI Log D” value came to 2.108.
The molecule `CC(=O)N[C@@H](Cc1ccccc1)C(=O)N[C@@H](CC(=O)O)C(=O)N[C@@H](C)C(=O)N[C@]1(C)CCCCCCC=CCOC(=O)N2CC[C@@](C(=O)N[C@@H](Cc3ccccc3)C(=O)N[C@@H](Cc3c[nH]c4ccccc34)C(=O)N[C@@H](CCC(N)=O)C(N)=O)(C2)NC(=O)[C@H](C(C)C)NC(=O)[C@H](Cc2ccccc2)NC(=O)[C@H](CC(=O)O)NC(=O)[C@H](C)NC(=O)[C@H](CC(=O)O)NC(=O)[C@H](CC(=O)O)NC1=O` (single isomer, unassigned) [I-19, Ac-Phe-Asp-Ala-R8-Asp-Asp-Ala-Asp-Phe-Val-PyrS-Phe-Trp-Gln-NH2] gave a chromatographic logD of 0.948.
Take `CC(=O)N[C@@H](Cc1ccccc1)C(=O)N[C@@H](CC(=O)O)C(=O)N[C@@H](C)C(=O)N[C@]1(C)CCCCCCC=CCOC(=O)N2CC[C@@](C(=O)N[C@@H](Cc3ccccc3)C(=O)N[C@@H](Cc3c[nH]c4ccccc34)C(=O)N[C@@H](CCC(N)=O)C(N)=O)(C2)NC(=O)[C@H](C(C)C)NC(=O)[C@H](Cc2ccccc2)NC(=O)[C@H](CC(=O)O)NC(=O)[C@H](C)NC(=O)[C@H](CC(=O)O)NC(=O)[C@H](CC(=O)O)NC1=O` (single isomer, unassigned) [I-20, Ac-Phe-Asp-Ala-R8-Asp-Asp-Ala-Asp-Phe-Val-PyrS-Phe-Trp-Gln-NH2]: the “CHI Log D” value was 0.935.
`CC(=O)N[C@@H](Cc1ccccc1)C(=O)N[C@@H](CC(=O)O)C(=O)N[C@@H](C)C(=O)N[C@]1(C)CCCCCCC=CCOC(=O)N2CC[C@@](C(=O)N[C@@H](Cc3ccccc3)C(=O)N[C@@H](Cc3c[nH]c4ccccc34)C(=O)N[C@@H](CCC(N)=O)C(N)=O)(C2)NC(=O)[C@H](C(C)C)NC(=O)[C@H](Cc2ccccc2)NC(=O)[C@H](CCC(=O)O)NC(=O)[C@H](C)NC(=O)[C@H](CC(=O)O)NC(=O)[C@H](CC(=O)O)NC1=O` (single isomer, unassigned) [I-21, Ac-Phe-Asp-Ala-R8-Asp-Asp-Ala-Glu-Phe-Val-PyrS-Phe-Trp-Gln-NH2] displayed a chromatographic logD of 0.92.
